{"source": "ChEMBL document CHEMBL6078630", "about": "“Design, synthesis, and bioactivity investigation of novel cyclic lipopeptide antibiotics targeting top-priority multidrug-resistant gram-negative bacteria” (Eur J Med Chem, 2024)", "key": {"[1]": {"assay": "Acute toxicity in iv dosed Swiss mouse assessed as maximum tolerated dose measured after 24 hrs", "format": "organism-based", "details": "in vivo"}, "Acinetobacter baumannii": {"system": "Acinetobacter baumannii", "assay": "Antibacterial activity against carbapenem-resistant Acinetobacter baumannii NCTC13304 infected in ICR mouse model administered intravenously with compound at 1 and 6 hrs post-infection and measured after 7 days", "format": "functional", "details": "NCTC13304, 168 h, route iv, time 7 day"}, "Escherichia coli": {"system": "Escherichia coli", "assay": "Antibacterial activity against Escherichia coli ATCC BAA-2523 infected in ICR mouse model administered intravenously with compound at 1 and 6 hrs post-infection and measured after 7 days", "format": "functional", "details": "ATCC BAA-2523, 168 h, route iv, time 7 day"}, "Klebsiella pneumoniae": {"system": "Klebsiella pneumoniae", "assay": "Antibacterial activity against carbapenem-resistant Klebsiella pneumoniae ATCC BAA-1705 infected in ICR mouse model administered intravenously with compound at 1 and 6 hrs post-infection and measured after 7 days", "format": "functional", "details": "ATCC BAA-1705, 168 h, route iv, time 7 day"}, "Pseudomonas aeruginosa [2]": {"system": "Pseudomonas aeruginosa", "assay": "Antibacterial activity against Pseudomonas aeruginosa ATCC 27853 infected in ICR mouse model infected in ICR mouse model assessed as survival rate at 20 mg/kg, iv administered at 1 and 6 hrs post-infection and measured after 7 days relative to control", "format": "functional", "details": "ATCC 27853, 168 h, time 7 day"}, "Pseudomonas aeruginosa [3]": {"system": "Pseudomonas aeruginosa", "assay": "Antibacterial activity against Pseudomonas aeruginosa ATCC 27853 infected in ICR mouse model administered intravenously with compound at 1 and 6 hrs post-infection and measured after 7 days", "format": "functional", "details": "ATCC 27853, 168 h, route iv, time 7 day"}}, "note": "Bridge positions count the residues as written; N and C are the ends. Square brackets hold non-standard residues; d marks the D form. Peptide text beside a SMILES is read from it. * marks the point of attachment. Octanoyl(6-Me) = CCC(C)CCCCC(=O)*; Dab = NCC[C@H](N)C(=O)O", "data": [{"compound": "CCC(C)CCCCC(=O)N[C@@H](CCN)C(=O)N[C@H](C(=O)N[C@@H](CCN)C(=O)N[C@H]1CCNC(=O)[C@H]([C@@H](C)O)NC(=O)[C@H](CCN)NC(=O)[C@H](CCN)NC(=O)[C@H](CC(C)C)NC(=O)[C@@H](CC(C)C)NC(=O)[C@H](CCN)NC1=O)[C@@H](C)O", "note": "(stereo partly drawn) ({Octanoyl(6-Me)}-[Dab]T[Dab][Dab][Dab][dL]L[Dab][Dab]T; lactam 4-C) [listing 1 of 2 here]", "values": [{"measurement": "MTD at 24 h", "setting": "[1]", "result": 5.3, "unit": "mg/kg"}]}, {"compound": "CCC(C)CCCCC(=O)N[C@@H](CCN)C(=O)N[C@H](C(=O)N[C@@H](CCN)C(=O)N[C@H]1CCNC(=O)[C@H]([C@@H](C)O)NC(=O)[C@H](CCN)NC(=O)[C@H](CCN)NC(=O)[C@H](CC(C)C)NC(=O)[C@@H](CC(C)C)NC(=O)[C@H](CCN)NC1=O)[C@@H](C)O", "note": "(stereo partly drawn) ({Octanoyl(6-Me)}-[Dab]T[Dab][Dab][Dab][dL]L[Dab][Dab]T; lactam 4-C) [listing 2 of 2 here]", "values": [{"measurement": "ED50", "setting": "Acinetobacter baumannii", "result": 0.98, "unit": "mg/kg"}, {"measurement": "ED50", "setting": "Escherichia coli", "result": 0.47, "unit": "mg/kg"}, {"measurement": "ED50", "setting": "Klebsiella pneumoniae", "result": 0.39, "unit": "mg/kg"}]}, {"compound": "C[C@@H](O)[C@H]1C(=O)N2C(C(=O)O)=C(S[C@@H]3CN[C@H](C(=O)N(C)C)C3)[C@H](C)[C@H]12", "note": "[MEROPENEM]", "values": [{"measurement": "survival at 20 mg/kg", "setting": "Pseudomonas aeruginosa [2]", "result": 100, "unit": "%"}, {"measurement": "ED50", "setting": "Pseudomonas aeruginosa [3]", "result": 7.07, "unit": "mg/kg"}]}]}
